Measured values from patent publication US4897391A, “Tricyclic anti-allergy, antiinflammatory and anti-hyperproliferative compounds” (Schering Corporation, priority 1988, dated 1990).

Tests used:
[1] = tested on: Reversed Passive Arthus Reaction (paw swelling); test: Reversed Passive Arthus Reaction (RPAR) Assay; assay type: in vivo, Male Lewis inbred albino rats; conditions: 50 mg/kg p.o.; rat
Text: Male Lewis inbred albino rats weighing 180-220 grams obtained from Charles River Breeding Laboratories are used in these experiments. House the rats 3 animals/cage and allow food and water ad libitum. Number the animals 1 to 3 in each cage and color mark them for identification purposes.
Prepare all reagents and drugs just prior to the study. Without shaking, solubilize crystallized and lyophilized bovine serum albumin (BSA), obtained from Sigma Chemical Company, in cold sterile pyrogen-free saline (10 mg/ml PFS). Suspend lyophilized anti-bovine serum albumin (IgG Fraction), obtained from Cappel Laboratories, in sterile distilled water and dilute with cold pyrogen-free saline (PFS) just prior to use. The final concentration of anti-bovine serum albumin will be 0.5 mg/ml of PFS. Both BSA and anti-BSA solutions should be iced during use. Suspend or solubilize drugs in an aqueous solution of methyl cellulose (MC) with a homogenizer just prior to administration.
Dose groups of animals (6/group) with drug in methyl cellulose (MC) by gastric lavage one hour prior to sensitization with BSA. Give controls MC alone and include drug-standard in each assay for verification purposes. Prepare drugs so as to provide a dose for a 200 gram animal which is equivalent to the mg/kg dose for the experiment. Thus each rat receives an oral dose in a volume of approximately 2.0 ml. […]

[2] = biological target: T1, 5-lipoxygenase (Mus musculus, UniProt P48999); test: 5-Lipoxygenase Assay (MC-9 mast cells, 5-HETE and LTC4 production); assay type: cell-based, murine; conditions: MC9, 50 μM dose; MC-9 cells; read-out: % Inhibition 5-HETE
T1 construct: Preincubate MC-9 cells (0.39 ml at 7.5×10^6 cells/ml) without or with test compound; endogenous in cells; host or cells: MC-9 murine mast cell clone (interleukin-3-dependent)
T1 sequence (P48999 1-674): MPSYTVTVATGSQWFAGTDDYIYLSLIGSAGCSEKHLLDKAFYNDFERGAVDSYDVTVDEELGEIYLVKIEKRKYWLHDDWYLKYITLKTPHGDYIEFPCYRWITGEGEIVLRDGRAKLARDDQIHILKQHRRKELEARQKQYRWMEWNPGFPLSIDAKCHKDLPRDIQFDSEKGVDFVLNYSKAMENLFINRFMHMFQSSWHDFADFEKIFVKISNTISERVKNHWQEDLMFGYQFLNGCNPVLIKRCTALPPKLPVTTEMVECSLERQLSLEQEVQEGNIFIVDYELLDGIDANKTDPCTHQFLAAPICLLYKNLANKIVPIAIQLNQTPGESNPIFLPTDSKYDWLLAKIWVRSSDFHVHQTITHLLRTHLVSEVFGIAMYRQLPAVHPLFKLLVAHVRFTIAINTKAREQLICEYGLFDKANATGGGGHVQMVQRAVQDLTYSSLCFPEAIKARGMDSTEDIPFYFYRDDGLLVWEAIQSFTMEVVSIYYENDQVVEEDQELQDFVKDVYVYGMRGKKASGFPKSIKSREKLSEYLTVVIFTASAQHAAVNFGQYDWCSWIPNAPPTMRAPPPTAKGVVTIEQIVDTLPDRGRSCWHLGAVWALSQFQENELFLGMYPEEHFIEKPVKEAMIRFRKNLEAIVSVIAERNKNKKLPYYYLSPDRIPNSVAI
Procedure: Preincubate MC-9 cells (0.39 ml at 7.5×10^6 cells/ml) without or with test compound dissolved in dimethylsulfoxide (DMSO) vehicle (to a final volume 1 μl) for 4 minutes then incubate for 5 minutes with [^14 C]arachidonic acid (Amersham, 59 Ci/mole) at a 9 μM final concentration, and A23187 (Calbiochem) at a 1 μM final concentration in 10 μl of water:ethanol (9:1). Stop the reaction by addition of methanol (0.4 ml), and remove cellular debris by centrifugation. Run aliquots (250 μl) of the incubations on a Waters two-pump HPLC system fitted with a Waters radial compression column (C18, 10 micron, 8×100 mm, micro-Bondapak) and C18 "Guard Pak". Initially elute the column at 3 ml/min with water:methanol:acetic acid (67:33:0.08) containing 1 mM EDTA adjusted to pH 6.0 with ammonium hydroxide (Pump A). At 4 minutes, establish a linear gradient to reach 100% methanol (Pump B) at 9 minutes. Between 13 and 14 minutes, exchange for the initial eluting solvent and by 19 minutes the column will be reequilibrated for the next sample. Analyze the effluent by a continuous flow radioactivity monitor (model ROMONA-D) interfaced with a Hewlett Packard Lab Automation System for quantitation of radioactive products. […] Doses in table 2 are 50 μM unless otherwise noted.

[3] = tested on: Peptidoleukotriene Release in Guinea Pig Lung; test: Peptidoleukotriene Release Inhibition in Lung Assay; assay type: cell-based; conditions: Cavia porcellus; final concentration of 50 μm (so in the source); ovalbumin challenge, sensitized guinea pig lung
Text: The anti-allergy method of this invention is identified by tests that measure inhibition of leukotriene release in sensitized guinea pigs by compounds of the invention. This procedure is as follows.
First, kill sensitized guinea pigs by a blow to the head, remove the lungs and clean them of visible connective tissue, trachea and large blood vessels. Slice the lungs from individual animals into fragments approximately 1 mm in thickness using a McIlwain tissue chopper and wash them with oxygenated Tyrode's buffer. Transfer weighed aliquots (approximately 400 mg wet weight) of lung into vials containing 2 ml of fresh Tyrode's solution (containing 10 mM cysteine) and incubate in the presence or absence of test compound for 12 minutes at 37° C., challenge the tissues with 20 μg ovalbumin/ml (final concentration) and incubate for 15 minutes. To measure leukotriene release, extract an aliquot of supernatant fluid with 4 volumes of 100% ethanol. After removal of the precipitated protein, dry the clear fluid under a stream of N2 gas. Measure the leukotriene content by a radioimmunoassay using [^3 H]LTC4 (leukotriene C4) and antiserum obtained from New England Nuclear. […] Calculate percent inhibition of leukotriene release by comparing for each lung the release in the presence of the test compound to that in the absence of test compound.

inhibition at 50 µM [2]: 8%
SMILES: COc1cc(OC)c2c(C)c3n(c(=O)c2c1)CCCC3 [Compound E, 8,10-bis(methoxy)-1,2,3,4-tetrahydro-11-methyl-6H-benzo[b]quinolizin-6-one]
inhibition of paw swelling [1]: 59%
inhibition at 50 µM [3]: 33%
